# Measured values from patent publication US6060043A, “Deodorant composition containing D-amino acid” (The Gillette Company, priority 1998, dated 2000).
# How the values were obtained:
# [1] = Test of antimicrobial materials for deodorant activity; settings: compared with currently available materials
# Source text: Cosmetic Chemists, 19, 611-626 (1968) and Cowen, "Relative Merits of `In Use` and Laboratory Methods for the Evaluation of Antimicrobial Products, "J. Soc. Cosmetic Chemists, 25, 307-323 (1974).
# β-lyase = experiment: Sniff vial test: malodor formation from precursors by whole Staphylococcus haemolyticus cells (beta-lyase inhibition); format: cell-based; settings: whole Staphylococcus haemolyticus cells, sniff vial assay
# Experimental: BCA was tested for its ability to prevent Staphylococcus haemolyticus from metabolizing sweat to form malodor. Log-phase cultures of Staphylococcus haemolyticus were incubated with various concentrations of BCA (31-0.625 mM) in phosphate buffer (pH 6.8) for 30 minutes at 35° C. The cell/BCA mixture was then added to a "sniff vial" containing malodor precursors and incubated at 35° C. for an additional 30 minutes. Malodor compounds were then extracted from the mixture with chloroform and malodor was judged by spotting 10 μl of chloroform extracts onto bibulous paper and smelling. […] In contrast, the β-lyase inhibitor aminooxyacetic acid (AOA) consistently prevents malodor in the above assay at concentrations of 5.0 mM.
# [2] = test system: Staphylococcus haemolyticus; experiment: Minimum inhibitory concentration (MIC) in axillary bacteria, Staphylococcus strain; format: cell-based; settings: overnight at 35° C., lowest concentration without turbidity, read-out: MIC
# Experimental: (§1) In vitro experiments were conducted in order to determine the ability of several bacterial cell wall synthesis inhibitors to inhibit the growth of axillary bacteria. The minimum inhibitory concentrations (MIC) of β-chloro-D-alanine (BCA), and D-cycloserine were determined in Staphylococcus (Staphylococcus haemolyticus) and Coryneform strains of axillary bacteria as follows: Frozen stock cultures were thawed out and 50 μl of Staphylococcus haemolyticus or 100 μl of Coryneform bacteria were inoculated into 5.0 ml of nutrient media. Bacteria were incubated at 35° C. overnight to produce cultures in log phase growth. A series of tubes was set up into which serial dilutions of BCA or triclosan in nutrient media were added in the range of 0.1 to 0.0001 wt/v % (where 1 g/100 ml=1 wt/v %). The tubes were inoculated with 50 μl of log phase Staphylococcus haemolyticus or Coryneform cultures and incubated at 35° C. overnight. […] The minimum bactericidal concentration (MBC) was determined by adding 50 μl from each clear solution of the MIC experiment into 5.0 ml of fresh nutrient media and incubating overnight at 37° C. […] The MIC of BCA was thus determined to be 0.1 wt/v % and 0.001 wt/v % in Staphylococcus haemolyticus and Coryneforms, respectively. The MIC of D-cycloserine was thus determined to be 0.01 wt/v % and 0.005 wt/v % in Staphylococcus haemolyticus and Coryneforms, respectively. By comparison, the MIC of the common antibacterial deodorant compound triclosan is 0.01 wt/v % and 0.1 wt/v % in Staphylococcus haemolyticus and Coryneforms, respectively.
# Coryneform bacteria = experiment: Minimum inhibitory concentration (MIC) in axillary bacteria, Coryneform strain; format: cell-based, Coryneform strains of axillary bacteria; settings: Coryneforms; overnight at 35° C.; lowest concentration without turbidity; read-out: MIC
# Experimental: as §1
# axillary malodor [3] = experiment: Example 5: axillary malodor evaluation by odor judges, 1.0% D-cycloserine vs 0.3% triclosan; format: in vivo, human; parameters: key to Post-Application 24 Hour Drop from Control: drop in odor score vs control; scale 0 (no odor) to 10 (very intense); settings: for Post-Application 24 Hour Drop from Control / Judges' Malodor Evaluation (score): 1.0% D-cycloserine, 0.3% triclosan; for Judges' Malodor Evaluation (score): scale 0 to 10
# Experimental: (§2) BCA was dissolved in a mixture of 60% propylene glycol and 40% water at a final concentration of 1.0%. The pH of the solution was adjusted to about 6.25 with 10 N NaOH. Thirty-nine female panelists applied 0.5 ml of this test solution to either the right or left axilla and 0.5 ml of a comparative solution of 60% propylene glycol and 40% water to the other. The side of application of the test or comparative solutions was assigned in a random fashion. Twenty-four hours after application, each side of the panelists' axilla was judged for odor by a panel of trained odor judges on a scale of 0 (no odor) to 10 (very intense, disagreeable odor). This procedure was performed on four consecutive days. […] Analysis of the clinical results is summarized below:
# A test product containing 1.0% D-cycloserine in 60% propylene glycol/40% water was compared to a product containing 0.3% triclosan in 60% propylene glycol/40% water by application to 60 test subjects according to the procedure of Example 4. […] All differences were highly significant.
# Staphylococcus cells = settings: as disclosed in U.S. Pat. No. 5,487,886; cited from earlier work
# [4] = target: T1, serine-palmitoyl transferase (Mus musculus, UniProt P97363); settings: topical application; Holleran et al. 1991; cited from earlier work
# T1 construct: host or cells: skin, in vivo after topical application
# T1 sequence (P97363 1-560): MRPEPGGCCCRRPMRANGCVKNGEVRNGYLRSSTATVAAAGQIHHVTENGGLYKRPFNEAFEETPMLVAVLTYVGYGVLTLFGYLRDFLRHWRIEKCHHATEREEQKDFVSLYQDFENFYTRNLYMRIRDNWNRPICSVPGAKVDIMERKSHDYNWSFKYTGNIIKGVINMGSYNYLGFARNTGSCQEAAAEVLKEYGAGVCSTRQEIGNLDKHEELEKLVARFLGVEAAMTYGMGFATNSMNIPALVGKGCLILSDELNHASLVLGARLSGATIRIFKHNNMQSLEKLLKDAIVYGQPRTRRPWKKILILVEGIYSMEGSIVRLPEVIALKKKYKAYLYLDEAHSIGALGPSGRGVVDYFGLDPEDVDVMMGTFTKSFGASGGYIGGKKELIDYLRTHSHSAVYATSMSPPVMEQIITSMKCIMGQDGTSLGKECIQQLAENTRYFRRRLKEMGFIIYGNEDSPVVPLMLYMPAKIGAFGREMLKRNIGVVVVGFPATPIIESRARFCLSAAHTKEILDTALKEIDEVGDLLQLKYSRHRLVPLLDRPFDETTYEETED
# T1 sequence (O35704 1-473 partner): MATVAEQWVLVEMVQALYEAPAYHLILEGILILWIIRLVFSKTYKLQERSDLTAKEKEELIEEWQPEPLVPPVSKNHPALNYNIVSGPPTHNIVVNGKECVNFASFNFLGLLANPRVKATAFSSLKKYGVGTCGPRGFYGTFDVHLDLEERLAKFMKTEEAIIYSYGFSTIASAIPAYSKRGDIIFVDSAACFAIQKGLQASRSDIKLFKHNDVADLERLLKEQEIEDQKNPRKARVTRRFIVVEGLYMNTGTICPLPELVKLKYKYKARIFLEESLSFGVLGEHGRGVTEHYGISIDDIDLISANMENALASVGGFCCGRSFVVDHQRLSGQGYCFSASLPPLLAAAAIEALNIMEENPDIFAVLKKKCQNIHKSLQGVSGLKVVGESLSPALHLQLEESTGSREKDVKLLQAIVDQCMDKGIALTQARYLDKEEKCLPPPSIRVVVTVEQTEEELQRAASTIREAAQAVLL
# [5] = topical application; Holleran et al. 1991; cited from earlier work
# axillary malodor [6] = experiment: Example 6: axillary malodor evaluation by odor judges, 1.0% β-chloro-D-alanine vs 1.0% β-chloro-L-alanine; format: in vivo, human; parameters: key to 24 Hour Drop from Control / A-B (drop), D-BCA minus L-BCA: drop in odor score on 0 (no odor) to 10 (very intense) scale; settings: 1.0% in 60% propylene glycol/40% water
# Experimental: as §2
# A test product containing 1.0% β-chloro-D-alanine (BCA)[…] in 60% propylene glycol/40% water was compared to a comparative product containing 1.0% β-chloro-L-alanine in 60% propylene glycol/40% water by application to 50 female test subjects according to the procedure of Example 4.
smiles,measurement,setting,value
CCCCCCCCCCCCCCCCCC[N+](C)(C)CCC[Si](OC)(OC)OC.[Cl-] [3-(trimethoxysilyl)propyloctadecyldimethyl ammonium chloride],Deodorant activity,[1],no improvement over currently available materials was observed
"NOCC(=O)O [AOA, aminooxyacetic acid, reference compound]",Concentration that consistently prevents malodor,β-lyase,5.0 mM
NC1CONC1=O [D-cycloserine],MIC,[2],100 µg/mL
same,MIC,Coryneform bacteria,50 µg/mL
same,"Inhibition of axillary malodor, 1.0% D-cycloserine product versus 0.3% triclosan","axillary malodor [3]; all measurements and the composite, odor judges",superior to 0.3% triclosan
same,Post-Application 24 Hour Drop from Control,axillary malodor [3]; composite,1.13
same,Judges' Malodor Evaluation (score),axillary malodor [3]; composite,3.61
same,Post-Application 24 Hour Drop from Control,axillary malodor [3]; measurement day 1,1.1
same,Judges' Malodor Evaluation (score),axillary malodor [3]; measurement day 1,3.64
same,Post-Application 24 Hour Drop from Control,axillary malodor [3]; measurement day 2,0.99
same,Judges' Malodor Evaluation (score),axillary malodor [3]; measurement day 2,3.75
same,Post-Application 24 Hour Drop from Control,axillary malodor [3]; measurement day 3,1.22
same,Judges' Malodor Evaluation (score),axillary malodor [3]; measurement day 3,3.53
same,Post-Application 24 Hour Drop from Control,axillary malodor [3]; measurement day 4,1.22
same,Judges' Malodor Evaluation (score),axillary malodor [3]; measurement day 4,3.52
NC1CONC1=O [L-cycloserine],Effect on the growth of Staphylococcus cells in culture,Staphylococcus cells,no inhibitory effect
[H]/N=C(\N/C(=N/[H])NCCCCCCNC(=N)NC(=N)Nc1ccc(Cl)cc1)Nc1ccc(Cl)cc1 [chlorhexidine],Deodorant activity,[1],no improvement over currently available materials was observed
OO [hydrogen peroxide],Deodorant activity,[1],no improvement over currently available materials was observed
CC(=O)OCC(COC(C)=O)OC(C)=O [triacetin],Deodorant activity,[1],no improvement over currently available materials was observed
"Oc1cc(Cl)ccc1Oc1ccc(Cl)cc1Cl [triclosan, reference compound]",MIC,[2],100 µg/mL
same,MIC,Coryneform bacteria,1000 µg/mL
same,Post-Application 24 Hour Drop from Control,axillary malodor [3]; composite,0.65
same,Judges' Malodor Evaluation (score),axillary malodor [3]; composite,4.07
same,Post-Application 24 Hour Drop from Control,axillary malodor [3]; measurement day 1,0.67
same,Judges' Malodor Evaluation (score),axillary malodor [3]; measurement day 1,4
same,Post-Application 24 Hour Drop from Control,axillary malodor [3]; measurement day 2,0.46
same,Judges' Malodor Evaluation (score),axillary malodor [3]; measurement day 2,4.26
same,Post-Application 24 Hour Drop from Control,axillary malodor [3]; measurement day 3,0.74
same,Judges' Malodor Evaluation (score),axillary malodor [3]; measurement day 3,3.97
same,Post-Application 24 Hour Drop from Control,axillary malodor [3]; measurement day 4,0.72
same,Judges' Malodor Evaluation (score),axillary malodor [3]; measurement day 4,4
"N[C@@H](CCl)C(=O)O [β-chloro-L-alanine, reference compound]",Inhibition of serine-palmitoyl transferase in the skin,[4],irreversibly inhibits
same,Recovery of skin barrier function in vivo,[5],alters recovery of skin barrier function
same,24 Hour Drop from Control,axillary malodor [6]; composite,1.083
same,24 Hour Drop from Control,axillary malodor [6]; post-application measurement 1,0.913
same,24 Hour Drop from Control,axillary malodor [6]; post-application measurement 2,1.040
same,24 Hour Drop from Control,axillary malodor [6]; post-application measurement 3,1.013
same,24 Hour Drop from Control,axillary malodor [6]; post-application measurement 4,1.333
